The values that follow come from ChEMBL document CHEMBL3046584, “Synthesis, biological activity and docking study of some new isatin Schiff base derivatives” (2012).

Tested on in the first assay: not listed separately
Briefly: Cytotoxicity against Homo sapiens (human) LS180 cells assessed as cell viability after 72 hr by MTT assay. The note with it: LS180, 72 h. Type of assay: functional.
Consider `O=C1Nc2ccccc2/C1=N\c1ccc(Cl)cc1`, for which the IC15 was greater than 100 µM and the IC30 – broadly, the point of the concentration-response curve where the effect stands at 30% – is greater than 100 µM.

As to `O=C1Nc2ccccc2/C1=N/c1nc2ccccc2[nH]1`, the IC15 was greater than 100 µM and the IC30 is greater than 100 µM.

Consider `O=C1Nc2ccccc2/C1=N/c1nc(Cl)cs1`, for which the IC15 is greater than 100 µM and the 30% effect concentration (IC30) is greater than 100 µM.

Take `Cc1conc1/N=C1\C(=O)Nc2ccccc21`: the IC15 is greater than 100 µM and the concentration for an effect of 30% (IC30) was greater than 100 µM.

Consider `Cc1ccccc1N=C1C(=O)Nc2ccccc21`, for which the IC15 was greater than 100 µM and the IC30 is greater than 100 µM.

As to `Cc1nc(Cl)cc(/N=C2\C(=O)Nc3ccccc32)n1`, the IC15 is greater than 100 µM and the IC30 was greater than 100 µM.

`O=C1Nc2ccccc2/C1=N/c1ccc(Cl)cn1`: the IC15 was greater than 100 µM and the concentration for an effect of 30% (IC30) is greater than 100 µM.

Take `O=C1Nc2ccccc2/C1=N/Nc1ccc([N+](=O)[O-])cc1`: the IC15 worked out at 5.2 µM and the IC30 was 21.8 µM.

As for `O=C1Nc2ccccc2/C1=N/c1cccc2ccccc12`, the IC15 amounted to 20.8 µM and the IC30 was greater than 100 µM.

In another assay the test system is Raji. Briefly: Cytotoxicity against Homo sapiens (human) Raji cells assessed as cell viability after 72 hr by MTT assay. Type of assay: functional.
Details: not given
Turning to `O=C1Nc2ccccc2/C1=N\c1ccc(Cl)cc1`, the IC15 came out at 35.4 µM and the IC30 worked out at 88.1 µM.

With `O=C1Nc2ccccc2/C1=N/c1nc2ccccc2[nH]1`, the IC15 was determined as 15.6 µM and the concentration for an effect of 30% (IC30) is greater than 100 µM.

As for `O=C1Nc2ccccc2/C1=N/c1nc(Cl)cs1`, the IC15 is 57.3 µM and the 30% effect concentration (IC30) is greater than 100 µM.

On to `Cc1conc1/N=C1\C(=O)Nc2ccccc21`, for which the IC15 was found to be 30.1 µM and the IC30 is greater than 100 µM.

Take `Cc1ccccc1N=C1C(=O)Nc2ccccc21`: the IC15 was 64.8 µM and the 30% effect concentration (IC30) is greater than 100 µM.

For the compound `Cc1nc(Cl)cc(/N=C2\C(=O)Nc3ccccc32)n1`, the IC15 is greater than 100 µM and the 30% effect concentration (IC30) is greater than 100 µM.

With `O=C1Nc2ccccc2/C1=N/c1ccc(Cl)cn1`, the IC15 is greater than 100 µM and the IC30 is greater than 100 µM.

For `O=C1Nc2ccccc2/C1=N/Nc1ccc([N+](=O)[O-])cc1`, the IC15 came out at 17 µM and the 30% effect concentration (IC30) is greater than 100 µM.

For `O=C1Nc2ccccc2/C1=N/c1cccc2ccccc12`, the IC15 stood at 48.8 µM and the IC30 is greater than 100 µM.

Another assay concerns HeLa. Briefly: Cytotoxicity against Homo sapiens (human) HeLa cells assessed as cell viability after […] by MTT assay.
Details: not given
Type of assay: functional. (Tetrazolium assays rely on reduction of a dye to a coloured formazan, in cell work by metabolically active cells.)
For the compound `O=C1Nc2ccccc2/C1=N\c1ccc(Cl)cc1`, the IC15 was found to be 15.4 µM and the concentration for an effect of 30% (IC30) is 80.2 µM.

With `O=C1Nc2ccccc2/C1=N/c1nc2ccccc2[nH]1`, the IC15 is 43.2 µM and the 30% effect concentration (IC30) was greater than 100 µM.

Turning to `O=C1Nc2ccccc2/C1=N/c1nc(Cl)cs1`, the IC15 amounted to 3.2 µM and the 30% effect concentration (IC30) was 35.9 µM.

As to `Cc1conc1/N=C1\C(=O)Nc2ccccc21`, the IC15 worked out at 49.6 µM and the IC30 is greater than 100 µM.

With `Cc1ccccc1N=C1C(=O)Nc2ccccc21`, the IC15 was 12.3 µM and the concentration for an effect of 30% (IC30) amounted to 52.6 µM.

In the case of `Cc1nc(Cl)cc(/N=C2\C(=O)Nc3ccccc32)n1`, the IC15 was 17.4 µM and the IC30 was greater than 100 µM.

Consider `O=C1Nc2ccccc2/C1=N/c1ccc(Cl)cn1`, for which the IC15 was determined as 21.6 µM and the 30% effect concentration (IC30) was 65.1 µM.

As to `O=C1Nc2ccccc2/C1=N/Nc1ccc([N+](=O)[O-])cc1`, the IC15 came to 3 µM and the IC30 stood at 12.2 µM.

With `O=C1Nc2ccccc2/C1=N/c1cccc2ccccc12`, the IC15 was determined as 15.8 µM and the 30% effect concentration (IC30) turned out to be 55.9 µM.
